Source: patent publication US20230364084A1, “METHODS FOR PREVENTING OR TREATING CONDITIONS RELATED TO PIKFYVE ACTIVITY” (The Regents of the University of Michigan, priority 2020, published 2023)

Tests used:
[1] = test system: mouse embryonic fibroblast (MEF) cells; assay: vacuolization and LC3 lipidation in Atg5 wild-type and knockout MEF cells; type: cell-based; details: 300 nM, 24 hours
[2] = test system: Myc-CaP cells; assay: long-term survival assay in Myc-CaP cells; type: cell-based, mouse
Description: Single cell suspensions were seeded into 96-well plates at a density of 1,000-30,000 cells per well. Long-term survival was determined after 14 days of drug incubation. Viable cells were fixed with 4% formaldehyde and subsequently stained with 1% crystal violet. IC50 was calculated using GraphPad Prism.

[3] = target: VEGFR-1 (FLT1) (Homo sapiens, UniProt P17948); details: cited from earlier work
[4] = test system: MDA-PCa-146-12 AR-positive PDX; assay: MDA-PCa-146-12 patient-derived xenograft; type: in vivo, mouse; details: 30 mg/kg
Description: The University of Texas M.D. Anderson Cancer Center (MDACC) patient-derived xenografts (PDX) series has been previously described^62-64. PDXs were derived from men with CRPC undergoing palliative resections using described protocols^65,66. MDA-PCa-146-12 and 146-10 PDX were derived from a patient initially diagnosed with Gleason 3+4=7 prostate adenocarcinoma with an initial PSA of 10.7 ng/ml. […] PDXs were maintained in male SCID mice by surgically implanting 2 mm^3 tumors coated with 100% Matrigel to both flanks of mice. Once tumors reached 100-200 mm^3 in size, mice were randomized and divided into different treatment groups receiving either 30 mg/kg ESK981 or vehicle (ORA-PLUS) by oral gavage 5 days per week.

[5] = test system: PC3 and DU145 cells; assay: autophagic flux detection (GFP-LC3-RFP-LC3ΔG probe); type: cell-based, human; details: PC3 or DU145 cells, 24 hours
Description: For autophagic flux detection, 10,000 cells were plated in 96-well plates and incubated with various compounds in complete medium for 24 hours. GFP and RFP fluorescence intensities were measured on a TECAN M1000 plate reader.

[6] = target: PIKfyve (Homo sapiens, UniProt Q9Y2I7); assay: kinase dissociation constant analysis (KdELECT); type: binding; parameters: purchased DiscoveRX (KINOMEscan scanLIPID panel; KdELECT); details: 11-point dose-response, duplicate
Description: Quantitative binding constants (Kd) of ESK981 to PIKfyve, PIP5K1A, PIP5K1C, and PIK3CA were generated using KdELECT® platform (DiscoveRX). An 11-point dose-response of ESK981 (0.05-3000 nM) was used, and the experiment was performed in duplicate. Detailed information is described on the DiscoveRX website (www.discoverx.com).

[7] = test system: enzalutamide-resistant LNCaP-AR and CWR-R1 cells; assay: long-term survival assay in enzalutamide-resistant cell lines; type: cell-based, human; details: LNCaP-AR and CWR-R1, long-term survival two weeks
Description: FIG. 1: ESK981 inhibits the growth of diverse preclinical models of prostate cancer and is associated with a unique vacuolization morphology. • (a) The percentage viabilities of DU145 cells treated with 300 nM ESK981 or 167 other tyrosine kinase inhibitors when compared to a vehicle control. The top five most inhibitory compounds, as well as cabozantinib and crizotinib (highlighted in orange), and their respective targets are listed in the table. […] Long-term survival (two weeks) was assayed by absorbance of crystal violet at OD590. • (e) VCaP-RFP cells were cultured for three days in ultralow attachment plates to form 3D tumor spheroids prior to the indicated drug treatments. […] Fluorescence intensity of 3D spheroids was measured by IncuCyte ZOOM. • (f) Castration-resistant VCaP tumors were established subcutaneously in castrated SCID mice, and mice were randomized into three groups, which received vehicle, 30 mg/kg, or 60 mg/kg ESK981 by oral gavage once per day for the indicated dosing schedule. Tumor volumes were monitored by a digital caliper twice per week. Data were analyzed by unpaired t test and presented as mean±SEM. *p<0.05; **p<0.01. • (g) AR^+ prostate patient-derived xenograft (PDX) MDA-PCa-146-12 were implanted subcutaneously in non-castrated SCID mice, and mice were randomized into two groups receiving either once daily vehicle or 30 mg/kg ESK981 for five days each week. […]

[8] = target: VEGFR-2 (KDR) (Homo sapiens, UniProt P35968); details: cited from earlier work
Sequence of VEGFR-2 (KDR) (P35968 20-1356, species assumed): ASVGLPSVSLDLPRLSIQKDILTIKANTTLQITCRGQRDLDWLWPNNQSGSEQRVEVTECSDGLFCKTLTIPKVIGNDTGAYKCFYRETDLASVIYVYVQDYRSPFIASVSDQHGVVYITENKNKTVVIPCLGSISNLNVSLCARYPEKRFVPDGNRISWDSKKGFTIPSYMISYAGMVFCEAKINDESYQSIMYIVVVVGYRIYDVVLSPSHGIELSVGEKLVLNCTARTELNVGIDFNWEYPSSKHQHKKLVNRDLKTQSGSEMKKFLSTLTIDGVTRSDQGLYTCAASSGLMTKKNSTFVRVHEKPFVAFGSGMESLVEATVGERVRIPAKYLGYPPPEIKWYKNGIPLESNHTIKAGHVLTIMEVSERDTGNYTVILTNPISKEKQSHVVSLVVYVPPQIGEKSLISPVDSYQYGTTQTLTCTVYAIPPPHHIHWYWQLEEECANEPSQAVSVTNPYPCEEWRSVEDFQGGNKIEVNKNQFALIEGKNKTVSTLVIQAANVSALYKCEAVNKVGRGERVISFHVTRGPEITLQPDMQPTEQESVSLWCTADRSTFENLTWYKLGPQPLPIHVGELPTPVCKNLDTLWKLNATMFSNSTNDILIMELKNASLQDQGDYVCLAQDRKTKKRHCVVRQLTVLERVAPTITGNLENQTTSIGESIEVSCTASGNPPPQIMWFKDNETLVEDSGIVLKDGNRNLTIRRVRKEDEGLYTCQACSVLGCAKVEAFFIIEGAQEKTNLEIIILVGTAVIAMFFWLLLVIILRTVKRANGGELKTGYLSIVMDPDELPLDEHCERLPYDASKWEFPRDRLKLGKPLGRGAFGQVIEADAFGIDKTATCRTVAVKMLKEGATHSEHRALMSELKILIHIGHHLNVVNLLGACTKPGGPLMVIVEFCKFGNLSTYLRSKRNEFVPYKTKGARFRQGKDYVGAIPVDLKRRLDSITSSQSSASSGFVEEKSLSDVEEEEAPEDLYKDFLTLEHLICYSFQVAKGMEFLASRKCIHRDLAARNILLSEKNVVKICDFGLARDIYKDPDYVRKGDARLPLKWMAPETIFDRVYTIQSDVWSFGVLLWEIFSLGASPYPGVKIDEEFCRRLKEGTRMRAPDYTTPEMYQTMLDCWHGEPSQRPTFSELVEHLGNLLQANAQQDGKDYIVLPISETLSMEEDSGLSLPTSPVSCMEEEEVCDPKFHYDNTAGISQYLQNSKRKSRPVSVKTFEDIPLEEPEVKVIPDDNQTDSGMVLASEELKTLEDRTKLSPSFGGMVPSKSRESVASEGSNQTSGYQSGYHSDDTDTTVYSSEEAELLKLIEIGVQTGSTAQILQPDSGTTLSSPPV

Sequence of VEGFR-1 (FLT1) (P17948 27-1338, species assumed): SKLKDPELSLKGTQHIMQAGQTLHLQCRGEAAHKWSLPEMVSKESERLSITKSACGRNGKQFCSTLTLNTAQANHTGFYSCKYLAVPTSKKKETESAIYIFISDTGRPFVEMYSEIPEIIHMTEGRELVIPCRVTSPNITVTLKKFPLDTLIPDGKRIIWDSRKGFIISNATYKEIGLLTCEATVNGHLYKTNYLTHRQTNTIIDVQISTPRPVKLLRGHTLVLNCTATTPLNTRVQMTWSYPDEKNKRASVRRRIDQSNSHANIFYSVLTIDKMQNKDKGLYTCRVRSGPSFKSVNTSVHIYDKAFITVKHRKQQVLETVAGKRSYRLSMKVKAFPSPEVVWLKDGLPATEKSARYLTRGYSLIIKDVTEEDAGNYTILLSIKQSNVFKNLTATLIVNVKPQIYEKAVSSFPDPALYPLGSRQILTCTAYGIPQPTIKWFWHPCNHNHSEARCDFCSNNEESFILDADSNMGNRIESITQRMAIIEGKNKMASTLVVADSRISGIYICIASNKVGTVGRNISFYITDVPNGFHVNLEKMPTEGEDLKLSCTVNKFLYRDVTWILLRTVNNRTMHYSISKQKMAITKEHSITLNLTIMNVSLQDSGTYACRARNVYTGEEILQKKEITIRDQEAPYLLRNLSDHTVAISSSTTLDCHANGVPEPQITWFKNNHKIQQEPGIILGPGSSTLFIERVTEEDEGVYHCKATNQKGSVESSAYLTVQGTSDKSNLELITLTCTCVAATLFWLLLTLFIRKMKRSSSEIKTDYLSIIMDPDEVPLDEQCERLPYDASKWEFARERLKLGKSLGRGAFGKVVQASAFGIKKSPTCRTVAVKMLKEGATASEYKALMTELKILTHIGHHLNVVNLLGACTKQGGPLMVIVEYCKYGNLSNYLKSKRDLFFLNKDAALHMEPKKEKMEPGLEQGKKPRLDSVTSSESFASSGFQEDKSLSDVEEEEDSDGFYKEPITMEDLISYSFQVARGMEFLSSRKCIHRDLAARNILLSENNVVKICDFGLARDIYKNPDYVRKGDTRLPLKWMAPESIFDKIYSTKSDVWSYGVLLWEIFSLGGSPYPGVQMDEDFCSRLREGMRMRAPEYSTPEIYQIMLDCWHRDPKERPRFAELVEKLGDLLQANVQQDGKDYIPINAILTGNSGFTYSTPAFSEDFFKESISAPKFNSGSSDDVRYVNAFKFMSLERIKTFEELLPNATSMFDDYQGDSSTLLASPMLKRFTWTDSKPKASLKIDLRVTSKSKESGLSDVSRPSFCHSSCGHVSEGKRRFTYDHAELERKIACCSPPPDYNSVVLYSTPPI
Sequence of PIKfyve (Q9Y2I7 whole entry): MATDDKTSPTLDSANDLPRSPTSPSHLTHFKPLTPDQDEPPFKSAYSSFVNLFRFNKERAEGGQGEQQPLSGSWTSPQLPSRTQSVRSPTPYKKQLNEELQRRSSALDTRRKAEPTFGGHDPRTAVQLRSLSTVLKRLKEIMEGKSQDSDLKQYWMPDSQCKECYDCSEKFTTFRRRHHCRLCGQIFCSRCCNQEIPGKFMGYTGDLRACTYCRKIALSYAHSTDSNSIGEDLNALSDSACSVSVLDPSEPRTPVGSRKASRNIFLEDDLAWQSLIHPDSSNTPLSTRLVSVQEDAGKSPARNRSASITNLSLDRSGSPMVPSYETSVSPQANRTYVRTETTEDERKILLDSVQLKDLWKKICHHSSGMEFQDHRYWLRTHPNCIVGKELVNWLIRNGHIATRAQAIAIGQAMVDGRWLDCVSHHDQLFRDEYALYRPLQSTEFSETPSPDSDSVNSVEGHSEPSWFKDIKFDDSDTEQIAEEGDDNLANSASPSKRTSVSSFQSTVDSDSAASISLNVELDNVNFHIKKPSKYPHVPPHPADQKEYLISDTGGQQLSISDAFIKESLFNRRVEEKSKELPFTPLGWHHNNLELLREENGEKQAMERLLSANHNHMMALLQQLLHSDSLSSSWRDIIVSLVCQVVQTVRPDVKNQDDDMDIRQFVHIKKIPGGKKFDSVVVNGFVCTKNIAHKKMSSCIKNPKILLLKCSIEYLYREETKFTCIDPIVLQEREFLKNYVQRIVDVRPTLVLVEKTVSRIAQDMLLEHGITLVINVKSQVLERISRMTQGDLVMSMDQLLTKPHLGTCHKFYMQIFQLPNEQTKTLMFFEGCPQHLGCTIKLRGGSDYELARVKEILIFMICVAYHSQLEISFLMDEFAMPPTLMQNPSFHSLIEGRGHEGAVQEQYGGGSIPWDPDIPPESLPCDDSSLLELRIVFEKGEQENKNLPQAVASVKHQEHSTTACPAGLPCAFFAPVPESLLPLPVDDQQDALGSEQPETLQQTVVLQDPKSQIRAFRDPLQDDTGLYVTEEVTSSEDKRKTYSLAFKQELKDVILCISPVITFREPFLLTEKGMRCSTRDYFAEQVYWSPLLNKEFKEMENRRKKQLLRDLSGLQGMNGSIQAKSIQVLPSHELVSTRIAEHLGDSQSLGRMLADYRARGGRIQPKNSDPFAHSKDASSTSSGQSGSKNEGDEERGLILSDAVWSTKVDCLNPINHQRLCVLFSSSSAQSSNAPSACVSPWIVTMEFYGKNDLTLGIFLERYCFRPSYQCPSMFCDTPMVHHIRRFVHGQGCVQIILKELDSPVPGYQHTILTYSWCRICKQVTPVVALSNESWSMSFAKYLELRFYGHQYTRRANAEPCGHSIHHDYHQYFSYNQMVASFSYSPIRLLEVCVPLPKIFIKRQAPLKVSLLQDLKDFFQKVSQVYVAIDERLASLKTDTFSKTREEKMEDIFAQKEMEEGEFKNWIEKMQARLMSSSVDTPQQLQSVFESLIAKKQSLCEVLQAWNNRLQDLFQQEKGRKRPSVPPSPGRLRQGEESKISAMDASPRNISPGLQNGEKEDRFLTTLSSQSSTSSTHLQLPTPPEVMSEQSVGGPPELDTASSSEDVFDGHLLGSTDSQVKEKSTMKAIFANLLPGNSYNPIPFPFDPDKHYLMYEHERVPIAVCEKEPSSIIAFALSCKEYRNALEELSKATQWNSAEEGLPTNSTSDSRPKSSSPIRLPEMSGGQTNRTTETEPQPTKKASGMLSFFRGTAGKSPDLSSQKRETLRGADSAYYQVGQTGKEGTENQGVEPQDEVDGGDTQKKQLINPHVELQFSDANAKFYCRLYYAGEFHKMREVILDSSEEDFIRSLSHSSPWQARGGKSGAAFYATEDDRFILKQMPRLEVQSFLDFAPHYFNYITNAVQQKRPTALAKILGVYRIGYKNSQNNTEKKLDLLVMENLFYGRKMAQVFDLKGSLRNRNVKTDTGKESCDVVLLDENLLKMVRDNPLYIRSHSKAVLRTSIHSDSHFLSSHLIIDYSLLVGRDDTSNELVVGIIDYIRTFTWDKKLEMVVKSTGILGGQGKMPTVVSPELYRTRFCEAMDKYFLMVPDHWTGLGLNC

Structure (SMILES): CC(C)Cn1c2ccc(Nc3ncccn3)cc2c2c3c(c4c(c21)CCc1nn(C)cc1-4)C(=O)NC3 [ESK981, 13-isobutyl-4-methyl-10-(pyrimidin-2-ylamino)-1,2,4,7,8,13-hexahydro-6H-indazolo[5,4-a]pyrrolo[3,4-c]carbazol-6-one]
- LC3 lipidation ([1]; Atg5 knockout MEFs): abolished
- vacuolization ([1]; autophagy-deficient Atg5−/− MEFs): largely attenuated
- vacuolization ([1]; wild-type MEF cells): significantly induced
- efficacy compared with crizotinib and cabozantinib [2]: most efficacious compound
- IC50 ([2]; Mus musculus, read-out: growth inhibitory IC50): 35 nM
- activity against kinase [3]: potent activity
- tumor weights [4]: significant decreases in tumor weights
- tumor growth ([4]; oral gavage 5 days per week, SCID mice): Significant inhibition of tumor growth
- autophagic flux (GFP/RFP ratio) [5]: low autophagic flux
- Kd [6]: 12 nM
- efficacy in enzalutamide-resistant cell lines [7]: remained efficacious
- activity against kinase [8]: potent activity
